Key:
Format in all cases: in vivo, BALB/c mice
[1] = tested on: epidermal thickness; test: Time course of TPA effects on skin of mice: epidermal thickness; conditions: for Increase in epidermal thickness: single application 100 μL TPA 0.01% in acetone
Description: Epidermal thickness was determined by image analysis. This image analysis system was a minicomputer (Tracor Northern TN8500) attached to a light microscope (Zeiss Axioplan) and a camcorder (Sony DXC-3000P). Sections were taken from each tissue block and 20 measurements were taken at fixed intervals from each section. The average value for the 20 measurements was obtained and entered as one value for each mouse. The mean and SEM for the six mice in each treatment group were calculated.
(§1) This study was conducted to determine the time course of effects produced by applying TPA to mice and killing at intervals of 1, 2, 3, 5 and 8 days. Peak times for epidermal hyperplasia, dermal inflammation and skin-fold thickness were determined. The object of this study was to determine the best time to sacrifice TPA-treated mice so as to obtain the maximum response to TPA. […] It was thus expected that a compromise time would have to be selected.
(§2) Forty two female BALB/c strain mice were divided into the treatment groups and the mice were treated with a single application (100 μL) of TPA (0.01% in acetone) and sacrificed at days 1, 2, 3, 5 and 8 and the time course of TPA effects on epidermal hyperplasia, dermal inflammatory cell infiltration and skin-fold thickness measured as described in Example 1.

[2] = tested on: dermal inflammatory cell density; test: Time course of TPA effects on skin of mice: dermal inflammatory cell density; conditions: for Increase in dermal inflammatory cell density: single application 100 μL TPA 0.01% in acetone
Description: Infiltration of inflammatory cells was determined by the same image analysis system using the section taken from the block of mouse skin embedded in paraffin wax or Spurr's resin and stained with haematoxylin and eosin or toluidine blue respectively. For each section, 10 fields, unless otherwise stated, were chosen randomly and the cell density per mm^2 of field determined. The average value for the 10 fields was obtained and entered as one value for each mouse. The mean and SEM for the six mice in each treatment group were calculated.
The measurement of the inflammatory cell infiltration included the background values which included other materials in the dermis stained in the same way. However, the increase, if there is any, reflects the migration of inflammatory cells.
as §1, §2

[3] = tested on: skin-fold thickness; test: Time course of TPA effects on skin of mice: skin-fold thickness; conditions: for Increase in skin-fold thickness: single application 100 μL TPA 0.01% in acetone
Description: The back skin of shaved mice was folded and measured by using a “Etalon” micrometer screw gauge. One measurement was taken for each mouse.
as §1, §2

For CCCCCCCCCCCCCC(=O)O[C@@H]1[C@@H](C)[C@@]2(O)[C@@H](C=C(CO)C[C@]3(O)C(=O)C(C)=C[C@@H]23)[C@@H]2C(C)(C)[C@]12OC(C)=O [TPA, 12-O-tetradecanoylphorbol 13-acetate], the “Increase in epidermal thickness” value ([1]; Day 1) was 326%, the “Increase in epidermal thickness” value ([1]; Day 2) was 382% and the “Increase in epidermal thickness” value ([1]; Day 3) was 393%. For the same compound, the “Increase in epidermal thickness” value ([1]; Day 5) was 270%, the “Increase in epidermal thickness” value ([1]; Day 8) was 130% and the “Time of peak effect, epidermal hyperplasia” value ([1]; single application of TPA) was 72 h. The “Increase in dermal inflammatory cell density” value ([2]; Day 1) was 397%, the “Increase in dermal inflammatory cell density” value ([2]; Day 2) was 296% and the “Increase in dermal inflammatory cell density” value ([2]; Day 3) was 272%. The “Increase in dermal inflammatory cell density” value ([2]; Day 5) was 280%, the “Increase in dermal inflammatory cell density” value ([2]; Day 8) was 225% and the “Time of peak effect, dermal inflammation” value ([2]; single application of TPA) was 24 h. For the same compound, the “Increase in skin-fold thickness” value ([3]; Day 1) was 193%, the “Increase in skin-fold thickness” value ([3]; Day 2) was 142% and the “Increase in skin-fold thickness” value ([3]; Day 3) was 124%. The “Increase in skin-fold thickness” value ([3]; Day 5) was 116%, the “Increase in skin-fold thickness” value ([3]; Day 8) was 107% and the “Time of peak effect, skin-fold thickening” value ([3]; single application of TPA) was 24 h.

Source: patent US20050267204A1, “Synergistic gold-containing compositions” (MEDICAL INNOVATIONS LIMITED, priority 1996, published 2005)
